Several values for one entry are separate records, joined by “and”; a condition that tells them apart may be missing. Identical values can stand only once.
Test system: T-47D spheroids with HUVEC/MSC, viability
Test: Anticancer human tumor T-47D cell line growth inhibition [PI3K];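 note: spheroids exposed to agents for seven days before reading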;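 for viability, T/C: percent of DMSO vehicle control luminescence so 100% = untreated growth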
Settings: for viability, T/C: stronger effect = lower value
In short: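 We assembled tumor spheroids that included a stromal compartment of HUVEC and MSCs, then exposed them to targeted agents alone and together with PI3K pathway inhibitors. Concentration series descended by half-log from clinically achievable Cmax levels. Viability served as the endpoint.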

[1] = curve of first compound, second compound 0.0316 µM
[2] = curve of first compound, second compound 0.1 µM
[3] = curve of first compound, second compound 0.316 µM
[4] = curve of first compound, second compound 1 µM
[5] = curve of first compound, second compound 3.16 µM
[6] = curve of first compound, second compound 10 µM
[7] = second compound 0.0316 µM, first compound 0.0316 µM
[8] = second compound 0.0316 µM, first compound 0.1 µM
[9] = second compound 0.0316 µM, first compound 0.316 µM
[10] = second compound 0.0316 µM, first compound 1 µM
[11] = second compound 0.1 µM, first compound 0.0316 µM
[12] = second compound 0.1 µM, first compound 0.1 µM
[13] = second compound 0.1 µM, first compound 0.316 µM
[14] = second compound 0.1 µM, first compound 1 µM
[15] = second compound 0.316 µM, first compound 0.0316 µM
[16] = second compound 0.316 µM, first compound 0.1 µM
[17] = second compound 0.316 µM, first compound 0.316 µM
[18] = second compound 0.316 µM, first compound 1 µM
[19] = second compound 1 µM, first compound 0.0316 µM
[20] = second compound 1 µM, first compound 0.1 µM
[21] = second compound 1 µM, first compound 0.316 µM
[22] = second compound 1 µM, first compound 1 µM

With `Cn1cnc2c(F)c(Nc3ccc(Br)cc3Cl)c(C(=O)NOCCO)cc21` + CC(Nc1ncnc2nc[nH]c12)c1cc2cccc(Cl)c2c(=O)n1-c1ccccc1 the IC50 [1] was greater than 3 µM, the IC50 [2] was greater than 3 µM and the IC50 [3] was greater than 3 µM. For the same molecule, the IC50 [4] was greater than 3 µM, the IC50 [5] was greater than 3 µM and the IC50 [6] was greater than 3 µM. For the same molecule, the viability, T/C (second compound 0.0316 µM, first compound 0.00949 µM) was 104%, the viability, T/C (second compound 0.0316 µM, first compound 0.03 µM) was 93.4% and the viability, T/C (second compound 0.0316 µM, first compound 0.0949 µM) was 100%. It also gave a viability, T/C (second compound 0.0316 µM, first compound 0.3 µM) of 81%, a viability, T/C (second compound 0.0316 µM, first compound 0.949 µM) of 84.2% and a viability, T/C (second compound 0.0316 µM, first compound 3 µM) of 77.1%. For the same molecule, the viability, T/C (second compound 0.1 µM, first compound 0.00949 µM) was 94.6%, the viability, T/C (second compound 0.1 µM, first compound 0.03 µM) was 86% and the viability, T/C (second compound 0.1 µM, first compound 0.0949 µM) was 87.8%. It also gave a viability, T/C (second compound 0.1 µM, first compound 0.3 µM) of 83.8%, a viability, T/C (second compound 0.1 µM, first compound 0.949 µM) of 93.2% and a viability, T/C (second compound 0.1 µM, first compound 3 µM) of 102%. It also gave a viability, T/C (second compound 0.316 µM, first compound 0.00949 µM) of 73.4%, a viability, T/C (second compound 0.316 µM, first compound 0.03 µM) of 83.2% and a viability, T/C (second compound 0.316 µM, first compound 0.0949 µM) of 79.7%. For the same molecule, the viability, T/C (second compound 0.316 µM, first compound 0.3 µM) was 83.9%, the viability, T/C (second compound 0.316 µM, first compound 0.949 µM) was 82% and the viability, T/C (second compound 0.316 µM, first compound 3 µM) was 75.2%. The viability, T/C (second compound 1 µM, first compound 0.00949 µM) was 96.9%, the viability, T/C (second compound 1 µM, first compound 0.03 µM) was 104% and the viability, T/C (second compound 1 µM, first compound 0.0949 µM) was 86.1%. For the same molecule, the viability, T/C (second compound 1 µM, first compound 0.3 µM) was 94.8%, the viability, T/C (second compound 1 µM, first compound 0.949 µM) was 75% and the viability, T/C (second compound 1 µM, first compound 3 µM) was 79.3%. For the same molecule, the viability, T/C (second compound 3.16 µM, first compound 0.00949 µM) was 79.3%, the viability, T/C (second compound 3.16 µM, first compound 0.03 µM) was 94.9% and the viability, T/C (second compound 3.16 µM, first compound 0.0949 µM) was 85.2%. The viability, T/C (second compound 3.16 µM, first compound 0.3 µM) was 95.5%, the viability, T/C (second compound 3.16 µM, first compound 0.949 µM) was 80.2% and the viability, T/C (second compound 3.16 µM, first compound 3 µM) was 82.5%. For the same molecule, the viability, T/C (second compound 10 µM, first compound 0.00949 µM) was 78.3%, the viability, T/C (second compound 10 µM, first compound 0.03 µM) was 82.2% and the viability, T/C (second compound 10 µM, first compound 0.0949 µM) was 71.3%. The viability, T/C (second compound 10 µM, first compound 0.3 µM) was 69.3%, the viability, T/C (second compound 10 µM, first compound 0.949 µM) was 80.9% and the viability, T/C (second compound 10 µM, first compound 3 µM) was 79.9%.

With `CC(C)NCC(C(=O)N1CCN(c2ncnc3c2C(C)CC3O)CC1)c1ccc(Cl)cc1` (stereo not given) + Cc1nc(NC(=O)N2CCCC2C(N)=O)sc1-c1ccnc(C(C)(C)C(F)(F)F)c1 the IC50 [1] was greater than 10 µM, the IC50 [2] was 7.98 µM and the IC50 [3] was greater than 10 µM. It also gave an IC50 [4] of 2.12 µM, an IC50 [5] of 0.585 µM and an IC50 [6] of less than 0.0316 µM. It also gave a viability, T/C [7] of 85.2%, a viability, T/C [8] of 79.7% and a viability, T/C [9] of 84.6%. It also gave a viability, T/C [10] of 61.1%, a viability, T/C (second compound 0.0316 µM, first compound 3.16 µM) of 58.1% and a viability, T/C (second compound 0.0316 µM, first compound 10 µM) of 55.3%. For the same molecule, the viability, T/C [11] was 93.5%, the viability, T/C [12] was 86.4% and the viability, T/C [13] was 81.1%. It also gave a viability, T/C [14] of 62.6%, a viability, T/C (second compound 0.1 µM, first compound 3.16 µM) of 58.1% and a viability, T/C (second compound 0.1 µM, first compound 10 µM) of 47.7%. For the same molecule, the viability, T/C [15] was 88.7%, the viability, T/C [16] was 87.8% and the viability, T/C [17] was 73.1%. It also gave a viability, T/C [18] of 66%, a viability, T/C (second compound 0.316 µM, first compound 3.16 µM) of 49.8% and a viability, T/C (second compound 0.316 µM, first compound 10 µM) of 55.5%. The viability, T/C [19] was 81.9%, the viability, T/C [20] was 82.5% and the viability, T/C [21] was 79.1%. It also gave a viability, T/C [22] of 62.7%, a viability, T/C (second compound 1 µM, first compound 3.16 µM) of 43.1% and a viability, T/C (second compound 1 µM, first compound 10 µM) of 40.3%. For the same molecule, the viability, T/C (second compound 3.16 µM, first compound 0.0316 µM) was 57.5%, the viability, T/C (second compound 3.16 µM, first compound 0.1 µM) was 57.5% and the viability, T/C (second compound 3.16 µM, first compound 0.316 µM) was 56.7%. The viability, T/C (second compound 3.16 µM, first compound 1 µM) was 44.1%, the viability, T/C (second compound 3.16 µM, first compound 3.16 µM) was 37% and the viability, T/C (second compound 3.16 µM, first compound 10 µM) was 37.2%. The viability, T/C (second compound 10 µM, first compound 0.0316 µM) was 37.4%, the viability, T/C (second compound 10 µM, first compound 0.1 µM) was 32.9% and the viability, T/C (second compound 10 µM, first compound 0.316 µM) was 34.6%. It also gave a viability, T/C (second compound 10 µM, first compound 1 µM) of 27%, a viability, T/C (second compound 10 µM, first compound 3.16 µM) of 22.1% and a viability, T/C (second compound 10 µM, first compound 10 µM) of 28.6%.

With `CC1(C)CCC(CN2CCN(c3ccc(C(=O)NS(=O)(=O)c4ccc(NCC5CCOCC5)c([N+](=O)[O-])c4)c(Oc4cnc5[nH]ccc5c4)c3)CC2)=C(c2ccc(Cl)cc2)C1` the viability, T/C (compound 0.0316 µM) was 93.2% [middle of 4 runs], the viability, T/C (compound 0.1 µM) was 99% [middle of 4 runs] and the viability, T/C (compound 0.316 µM) was 99% and 91.9% and 111% (2×). For the same molecule, the IC50 (curve of compound) was greater than 10 µM.

In the case of `CCN1CCN(Cc2ccc(Nc3ncc(F)c(-c4cc(F)c5nc(C)n(C(C)C)c5c4)n3)nc2)CC1` + COc1c(OCCCN2CCOCC2)ccc2c3n(c(=NC(=O)c4cnc(N)nc4)nc12)CCN3, the IC50 (curve of first compound, second compound 0.00316 µM) is reported as greater than 1 µM, the IC50 (curve of first compound, second compound 0.01 µM) is reported as greater than 1 µM and the IC50 [1] is reported as 0.0083 µM. It also gave an IC50 [2] of less than 0.00316 µM, an IC50 [3] of less than 0.00316 µM and an IC50 [4] of less than 0.00316 µM. For the same molecule, the viability, T/C (second compound 0.00316 µM, first compound 0.00316 µM) was 81.5%, the viability, T/C (second compound 0.00316 µM, first compound 0.01 µM) was 77.9% and the viability, T/C (second compound 0.00316 µM, first compound 0.0316 µM) was 83.2%. The viability, T/C (second compound 0.00316 µM, first compound 0.1 µM) was 74.8%, the viability, T/C (second compound 0.00316 µM, first compound 0.316 µM) was 73.2% and the viability, T/C (second compound 0.00316 µM, first compound 1 µM) was 88.6%. For the same molecule, the viability, T/C (second compound 0.01 µM, first compound 0.00316 µM) was 99.1%, the viability, T/C (second compound 0.01 µM, first compound 0.01 µM) was 75.3% and the viability, T/C (second compound 0.01 µM, first compound 0.0316 µM) was 70.5%. The viability, T/C (second compound 0.01 µM, first compound 0.1 µM) was 71.5%, the viability, T/C (second compound 0.01 µM, first compound 0.316 µM) was 67.6% and the viability, T/C (second compound 0.01 µM, first compound 1 µM) was 72.5%. For the same molecule, the viability, T/C (second compound 0.0316 µM, first compound 0.00316 µM) was 64%, the viability, T/C (second compound 0.0316 µM, first compound 0.01 µM) was 47.8% and the viability, T/C [7] was 41.2%. For the same molecule, the viability, T/C [8] was 43.4%, the viability, T/C [9] was 44.6% and the viability, T/C [10] was 56.5%. The viability, T/C (second compound 0.1 µM, first compound 0.00316 µM) was 41.3%, the viability, T/C (second compound 0.1 µM, first compound 0.01 µM) was 25.1% and the viability, T/C [11] was 27.7%. For the same molecule, the viability, T/C [12] was 24.4%, the viability, T/C [13] was 29% and the viability, T/C [14] was 45.3%. The viability, T/C (second compound 0.316 µM, first compound 0.00316 µM) was 13%, the viability, T/C (second compound 0.316 µM, first compound 0.01 µM) was 12.3% and the viability, T/C [15] was 14.8%. For the same molecule, the viability, T/C [16] was 16.3%, the viability, T/C [17] was 23.4% and the viability, T/C [18] was 34.4%. It also gave a viability, T/C (second compound 1 µM, first compound 0.00316 µM) of 6.17%, a viability, T/C (second compound 1 µM, first compound 0.01 µM) of 5.48% and a viability, T/C [19] of 7.16%. It also gave a viability, T/C [20] of 6.14%, a viability, T/C [21] of 12.2% and a viability, T/C [22] of 24.2%.

Source: PubChem BioAssay AID1963959 (Molecular Pharmacology Branch, DTP, NCI, 2024)
